Laboratory results reported in patent US20110118275A1, “OXAZOLO[4,5-c]PYRIDINE SUBSTITUTED PYRAZINE” (ASTRAZENECA AB, priority 2009, published 2011).
Blank lines part the entries; values can stand above or below the compound they belong to.

How the values were obtained:
[1] = target: T1, recombinant Axl tyrosine kinase (Homo sapiens, UniProt P30530); assay: In vitro Axl kinase assay (AlphaScreen); type: biochemical; conditions: Ki calculated from IC50, Km for ATP 0.2 μM
T1 construct: GST (N); made in house; host or cells: SF126 insect cells
T1 sequence (P30530 473-894): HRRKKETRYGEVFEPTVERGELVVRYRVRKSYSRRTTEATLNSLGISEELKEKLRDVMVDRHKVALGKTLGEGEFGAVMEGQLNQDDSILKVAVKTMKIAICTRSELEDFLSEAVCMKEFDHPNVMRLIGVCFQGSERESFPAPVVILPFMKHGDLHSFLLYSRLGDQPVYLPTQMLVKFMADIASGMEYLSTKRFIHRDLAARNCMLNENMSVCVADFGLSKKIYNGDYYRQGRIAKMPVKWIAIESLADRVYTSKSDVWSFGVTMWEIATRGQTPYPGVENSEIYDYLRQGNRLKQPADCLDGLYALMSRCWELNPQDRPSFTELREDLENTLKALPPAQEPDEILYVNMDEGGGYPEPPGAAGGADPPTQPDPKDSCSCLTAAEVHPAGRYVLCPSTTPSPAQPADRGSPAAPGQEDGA
Excerpt: Determination of the In Vitro Axl Kinase Assay.
The following assays can be used to measure the effects of the compounds of the present invention as inhibitors of Axl tyrosine kinase enzyme, as inhibitors in vitro of the phosphorylation of Axl expressed on NCI H1299 lung large cell carcinoma cells. The assay used AlphaScreen technology (Gray et al., Analytical Biochemistry, 2003, 313: 234-245) to determine the ability of test compounds to inhibit phosphorylation by recombinant Axl tyrosine kinase.
N-terminal GST-Axl kinase domain encompassing amino acids 473 to 894 of Axl (GenBank Accession No NM_021913) was expressed in […] insect cells and purified using the GST epitope tag, using standard purification techniques.
Test compounds were prepared as 10 mM stock solutions in dimethylsulphoxide (DMSO) and diluted in DMSO as required. […]
Each reaction was stopped by the addition of 5 μl of a mixture of 500 mM EDTA, 3 mg/ml bovine serum albumin (BSA) and 20 mM Tris-HCl pH 7.4 buffer containing 40 ng/μl AlphaScreen Streptavidin donor and anti-p-Tyr-100 acceptor beads (Perkin Elmer, Catalogue No. 6760620M). The resultant signals arising from laser light excitation at 680 nm were read using a Packard Envision instrument. […]

[2] = Hygroscopicity by Dynamic Vapor Sorption (DVS); type: physicochemical; conditions: 25° C.
Experimental: Description of the Dynamic Vapor Sorption (DVS) Method Used
The weight change over time as a function of relative humidity (RH) at 25° C. was measured in a DVS Advantage, equipped with a SMS ultrabalance using DVS Advantage Control Software Version 1.2.0.21, from Surface Measurement Systems, London, UK.
Carrier gas was nitrogen 200 ml/minute. The sample amount was circa 10 mg. The equilibrium criteria, for each step, was set to 0.002%/minute with DMDT Window 5 minutes, DMDT Min Time 10 minutes and DMDT Max Time 360 minutes as defined in the Control Software. DMDT uses the percentage rate of change of mass with time (dm/dt) to determine whether a sample has come to equilibrium.
DMDT Window (min): The time window, over which a straight line is fitted to the mass data in order to calculate a value of dm/dt.
DMDT Min Time (min): The time that the measured dm/dt must satisfy the specified dm/dt criteria before switching to the next Method Stage.
DMDT Max Time (min): The maximum time a Method Stage will run in dm/dt mode before switching to the next Method Stage—regardless of whether the dm/dt criterion has been satisfied.
The sample was initially dried at 0% RH and the water vapor sorption was measured as weight gain after stepwise increase to 10, 20, 30, 40, 50, 60, 70, 80, 90 and 95% relative humidity. After stepwise drying using the same relative humidities in reverse order down to 0% RH a second sorption curve was obtained.

recombinant human GSK3β = target: T2, recombinant human GSK3β (Homo sapiens, UniProt P49841); assay: Determination of GSK3β activity in Scintillation Proximity Assay; type: biochemical; conditions: Km of ATP 3 μM used to calculate Ki; 1 μmol/L ATP; read-out: mean GSKβ Ki value
T2 construct: purchased Dundee University, UK
T2 sequence (P49841 whole entry): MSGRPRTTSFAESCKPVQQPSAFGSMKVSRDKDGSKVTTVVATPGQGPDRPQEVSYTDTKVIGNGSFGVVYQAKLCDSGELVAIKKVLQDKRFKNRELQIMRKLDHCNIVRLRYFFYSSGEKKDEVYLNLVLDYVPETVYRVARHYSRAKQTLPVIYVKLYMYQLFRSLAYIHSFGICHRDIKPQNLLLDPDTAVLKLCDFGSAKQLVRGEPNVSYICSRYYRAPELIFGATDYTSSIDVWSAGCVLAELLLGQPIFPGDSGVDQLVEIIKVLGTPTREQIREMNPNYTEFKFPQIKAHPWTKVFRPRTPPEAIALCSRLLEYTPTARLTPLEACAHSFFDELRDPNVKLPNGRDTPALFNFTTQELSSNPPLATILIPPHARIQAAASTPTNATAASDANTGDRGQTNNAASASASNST
Experimental: Determination of GSK3β activity in Scintillation Proximity Assay.
The inhibition experiments were carried out in duplicate with 10 concentrations of the inhibitor in 384 well clear-bottom microtitre plates. A biotinylated peptide substrate (Biotin-Ala-Ala-Glu-Glu-Leu-Asp-Ser-Arg-Ala-Gly-Ser(PO3H2)-Pro-Gln-Leu (AstraZeneca, Lund)), was added at a final concentration of 1 μmol/L in an assay buffer (pH 7.0) containing 0.6 mU recombinant human GSK3β (Dundee University, UK), (˜5 nmol/L active enzyme), 10 mmol/L morpholinepropanesulfonic acid (MOPS), 0.3 mmol/L EDTA, 0.01% (v/v) (3-mercaptoethanol, 0.003% (w/v) polyethylene 23 lauryl ether (Brij 35), 0.4% glycerol and 0.02 mg bovine serum albumine (BSA) and preincubated for 10 minutes. The reaction was initiated by the addition of 0.06 μCi [γ-33P]ATP (Amersham, UK) and unlabelled ATP in 30 mmol/L Mg(Ac)2 to a final concentration of 1 μmol/L ATP. The final assay volume was 15 μL. Blank controls without peptide substrate were used. After incubation for 15 min at room temperature, the reaction was terminated by the to addition of stop solution containing 1.3 mmol/L EDTA, 13 μmol/L ATP, 0.02% Triton™X-100 and 0.15 mg streptavidin coated SPA beads. After a 5 minutes centrifugation at 2000 rpm, the radioactivity was measured in a liquid scintillation counter (1450 MicroBeta Trilux, Perkin Elmer, Finnland). […]

- Ki [1]: 113 nM
- Average weight gain ([2]; 0% RH): 0.0%
- Weight gain calculated as molar equivalents of water ([2]; 0% RH): 0.0 molar equivalents of water
- Weight gain first sorption curve ([2]; 0% RH): 0.00%
- Weight gain second sorption curve ([2]; 0% RH): 0.00%
- Average weight gain ([2]; 10% RH): 0.1%
- Weight gain calculated as molar equivalents of water ([2]; 10% RH): 0.0 molar equivalents of water
- Weight gain first sorption curve ([2]; 10% RH): 0.12%
- Weight gain second sorption curve ([2]; 10% RH): 0.14%
- Average weight gain ([2]; 20% RH): 2.4%
- Weight gain calculated as molar equivalents of water ([2]; 20% RH): 0.5 molar equivalents of water
- Weight gain first sorption curve ([2]; 20% RH): 2.34%
- Weight gain second sorption curve ([2]; 20% RH): 2.41%
- Average weight gain ([2]; 30% RH): 3.1%
- Weight gain calculated as molar equivalents of water ([2]; 30% RH): 0.7 molar equivalents of water
- Weight gain first sorption curve ([2]; 30% RH): 3.09%
- Weight gain second sorption curve ([2]; 30% RH): 3.14%
- Average weight gain ([2]; 60% RH): 4.7%
- Weight gain calculated as molar equivalents of water ([2]; 60% RH): 1.1 molar equivalents of water
- Weight gain first sorption curve ([2]; 60% RH): 4.72%
- Weight gain second sorption curve ([2]; 60% RH): 4.65%
- Average weight gain ([2]; 90% RH): 9.2%
- Weight gain calculated as molar equivalents of water ([2]; 90% RH): 2.1 molar equivalents of water
- Weight gain first sorption curve ([2]; 90% RH): 9.16%
- Weight gain second sorption curve ([2]; 90% RH): 9.19%
- Ki (recombinant human GSK3β): 2.3 nM
Compound: CN1CCN(C(=O)c2ccc(-c3cnc(N)c(-c4nc5cnccc5o4)n3)cc2)CC1 [Example 1, (4-(5-Amino-6-(oxazolo[4,5-c]pyridin-2-yl)pyrazin-2-yl)phenyl)(4-methylpiperazin-1-yl)methanone]

- Ki (recombinant human GSK3β): 3.2 nM
Compound: Nc1ncc(-c2ccc(C(=O)N3CCNCC3)cc2)nc1-c1nc2cnccc2o1 [Example 14, (4-(5-Amino-6-(oxazolo[4,5-c]pyridin-2-yl)pyrazin-2-yl)phenyl)(piperazin-1-yl)methanone]
